14 molecules from patent publication US11129829B2, “Methods for modulating splicing” (Skyhawk Therapeutics, Inc., priority 2019, dated 2021) can be followed below.

One test deals with Target 1. The test can be described thus: qPCR assay, Target 1 splicing potency (poison exons 7b and 7c inclusion). The format is cell-based. The conditions noted are these: for IC50: WT transcript. As for the experimental part:
(§1) A-673 or SK-N-MC cells were treated with different concentrations of SMSM compounds or DMSO for 24 hours. After the first 16 hours, cells were treated with 100 ug/ml of cycloheximide (CHX) for 8 hours to inhibit protein translation and nonsense-mediated decay (NMD). Cells were lysed with RNA lysis buffer and RNAs were purified using standard methods. After cDNA synthesis, samples were analyzed by qPCR using target transcript specific Taqman primers/probes (FIGS. 7, 19, 20, and 29). Absolute copy numbers were determined using standard curves from G-block DNA fragments (FIGS. 8, 9, and 21). Relative gene expression was determined by comparing the gene expression in the presence of an SMSM and DMSO (FIGS. 10-16 and 22-28).
Background: Quantitative PCR measures a nucleic acid by following its amplification.

For another test, the system named is Target 2. The test can be described thus: qPCR assay, Target 2 splicing potency (poison exon 12c inclusion). It counts as cell-based. The settings on record: for IC50: WT transcript; for EC50: poison exon E12c inclusion. As for the experimental part: as §1
The mark [1] stands for this setting: poison exon E7b inclusion, read-out: Target 1 Splicing Potency E7b EC50.
The mark [2] stands for this setting: poison exon E7c inclusion, read-out: Target 1 Splicing Potency E7c EC50.

Structures are written as SMILES. Read-outs that look alike come from different tables or passages of the source.

In the case of `COc1cc(-c2ccc(-c3ccc(N(C)[C@H]4C[C@]5(C)CC[C@](C)(C4)N5)nn3)c(O)c2)cnn1` [SMSM 70812, 2-(6-{[(1R,3S,5S)-1,5-dimethyl-8-azabicyclo[3.2.1]octan-3-yl](methyl)amino}pyridazin-3-yl)-5-(6-methoxypyridazin-4-yl)phenol], the values for the IC50 in the test with Target 1 and with Target 2 were 178 nM and 169 nM, respectively. Further, the EC50 (as a rule, the concentration at which the effect is half-maximal) in the test on Target 1 (setting [1]) stood at 174 nM; in the test with Target 1 (setting [2]) it was 754 nM; in the test with Target 2, 355 nM.
Consider `CNC(=O)/C=C/c1cc(O)c(-c2ccc(N(C3CC3)[C@H]3C[C@]4(C)CCC[C@](C)(C3)N4)nn2)cc1F` [SMSM 70826, (2E)-3-[4-(6-{cyclopropyl[(1R,3S,5S)-1,5-dimethyl-9-azabicyclo[3.3.1]nonan-3-yl]amino}pyridazin-3-yl)-2-fluoro-5-hydroxyphenyl]-N-methylprop-2-enamide], for which the figures for the IC50 with Target 1 and in the test with Target 2 were 177 nM and 337 nM, respectively. Besides, the results for the EC50 in the test with Target 1 (setting [1]), in the test on Target 1 (setting [2]) and in the test with Target 2 were 257 nM, 887 nM and 304 nM, respectively.
For the molecule `CN(c1ccc(-c2ccc(-c3ccn(C)c(=O)c3)cc2O)nn1)[C@H]1C[C@]2(C)CCC[C@](C)(C1)N2` [SMSM 70814, 4-[3-hydroxy-4-(6-{methyl[(1R,3S,5S)-1,5-dimethyl-9-azabicyclo[3.3.1]nonan-3-yl]amino}pyridazin-3-yl)phenyl]-1-methyl-1,2-dihydropyridin-2-one], the results for the IC50 in the test with Target 1 and with Target 2 were 102 nM and 110 nM, respectively. Moreover, the EC50 in the test on Target 1 (setting [1]) came out at 89.2 nM; with Target 1 (setting [2]), 538 nM.
With `CN(c1ccc(-c2cc(F)c(-c3ccn(CF)c(=O)c3)cc2O)nn1)[C@H]1C[C@]2(C)CCC[C@](C)(C1)N2` [SMSM 70819, 4-[2-fluoro-5-hydroxy-4-(6-{methyl[(1R,3S,5S)-1,5-dimethyl-9-azabicyclo[3.3.1]nonan-3-yl]amino}pyridazin-3-yl)phenyl]-1-(fluoromethyl)-1,2-dihydropyridin-2-one], the values for the half-inhibitory concentration (IC50) with Target 1 and with Target 2 were 93.9 nM and 94.7 nM, respectively. The EC50 in the test on Target 1 (setting [1]) was 88 nM; with Target 1 (setting [2]), 293 nM; in the test on Target 2, 92.9 nM.
Taken in the same sequence, the figures for `CN(c1ccc(-c2cc(F)c(-c3cn[nH]c3)cc2O)nn1)[C@@H]1C[C@H]2CCC[C@@H](C1)N2` [SMSM 70807, 4-fluoro-2-(6-{methyl[(1R,3S,5S)-9-azabicyclo[3.3.1]nonan-3-yl]amino}pyridazin-3-yl)-5-(1H-pyrazol-4-yl)phenol] were 46 nM, 50.8 nM, 168 nM, 162 nM and 540 nM.
For the molecule `COc1cc(-c2ccc(-c3ccc(N(C)[C@H]4C[C@]5(C)CC[C@](C)(C4)N5)nn3)c(O)c2)ncn1` [SMSM 70817, 2-(6-{[(1R,3S,5S)-1,5-dimethyl-8-azabicyclo[3.2.1]octan-3-yl](methyl)amino}pyridazin-3-yl)-5-(6-methoxypyrimidin-4-yl)phenol], the IC50 (commonly the concentration that inhibits the measured activity by half) came out at 707 nM with Target 1 and 930 nM in the test on Target 2. In addition, the values for the EC50 in the test with Target 1 (setting [1]), with Target 1 (setting [2]) and in the test on Target 2 were 941 nM, 2910 nM and 1160 nM, respectively.
Taken in the same sequence, the figures for `CNC(=O)c1ccc2cc(-c3ccc(N(C)[C@H]4C[C@]5(C)CCC[C@](C)(C4)N5)nn3)c(O)cc2n1` [SMSM 70824, 7-hydroxy-N-methyl-6-(6-{methyl[(1R,3S,5S)-1,5-dimethyl-9-azabicyclo[3.3.1]nonan-3-yl]amino}pyridazin-3-yl)quinoline-2-carboxamide] were 27.6 nM, 54 nM, 9.3 nM, 60.2 nM and 46.1 nM.
Taken in the same sequence, the figures for `CN(c1ccc(-c2cc(F)c(-c3cc(=O)n(C)cn3)cc2O)nn1)[C@H]1C[C@]2(C)CC[C@](C)(C1)N2` [SMSM 70816, 6-(4-(6-(((1R,3S,5S)-1,5-dimethyl-8-azabicyclo[3.2.1]octan-3-yl)(methyl)amino)pyridazin-3-yl)-2-fluoro-5-hydroxyphenyl)-3-methylpyrimidin-4(3H)-one] were 215 nM, 225 nM, 171 nM, 737 nM and 634 nM.
Taken in the same sequence, the figures for `CNC(=O)/C=C/c1cc(O)c(-c2ccc(N(C)[C@H]3C[C@]4(C)CCC[C@](C)(C3)N4)nn2)cc1F` [SMSM 70813, (2E)-3-[2-fluoro-5-hydroxy-4-(6-{methyl[(1R,3S,5S)-1,5-dimethyl-9-azabicyclo[3.3.1]nonan-3-yl]amino}pyridazin-3-yl)phenyl]-N-methylprop-2-enamide] were 99.1 nM, 162 nM, 41 nM, 310 nM and 126 nM.
As to `CN(c1ccc(-c2ccc(-c3cnn(CF)c3)cc2O)nn1)[C@H]1C[C@]2(C)CC[C@](C)(C1)N2` [SMSM 70810, 2-(6-{[(1R,3S,5S)-1,5-dimethyl-8-azabicyclo[3.2.1]octan-3-yl](methyl)amino}pyridazin-3-yl)-5-[1-(fluoromethyl)-1H-pyrazol-4-yl]phenol], the IC50 was found to be 236 nM in the test on Target 1 and 220 nM in the test with Target 2. Also, the 50% effective concentration (EC50) in the test on Target 1 (setting [1]) worked out at 180 nM; with Target 1 (setting [2]), 1050 nM; in the test on Target 2 it was 418 nM.
For `COc1cc(-c2ccc(-c3ccc(N(C)[C@H]4C[C@]5(C)CCC[C@](C)(C4)N5)nn3)c(O)c2)cnn1` [SMSM 70820, 5-(6-methoxypyridazin-4-yl)-2-(6-{methyl[(1R,3S,5S)-1,5-dimethyl-9-azabicyclo[3.3.1]nonan-3-yl]amino}pyridazin-3-yl)phenol], in that order: 142 nM, 166 nM, 111 nM, 627 nM and 530 nM.
As to `CNC(=O)/C=C/c1cc(O)c(-c2ccc(N(C)[C@@H]3C[C@H]4CCC[C@@H](C3)N4)nn2)cc1F` [SMSM 70808, (2E)-3-{4-[6-({9-azabicyclo[3.3.1]nonan-3-yl}(methyl)amino)pyridazin-3-yl]-2-fluoro-5-hydroxyphenyl}-N-methylprop-2-enamide], the IC50 with Target 1 was 104 nM; in the test with Target 2, 149 nM. For the same molecule, the EC50 in the test on Target 1 (setting [1]) was determined as 47.5 nM; with Target 1 (setting [2]), 348 nM; with Target 2, 606 nM.
For `CN(c1ccc(-c2cc(F)c(-c3ccn(C)c(=O)c3)cc2O)nn1)[C@H]1C[C@]2(C)CCC[C@](C)(C1)N2` [SMSM 70815, 4-[2-fluoro-5-hydroxy-4-(6-{methyl[(1R,3S,5S)-1,5-dimethyl-9-azabicyclo[3.3.1]nonan-3-yl]amino}pyridazin-3-yl)phenyl]-1-methyl-1,2-dihydropyridin-2-one], in that order: 105 nM, 116 nM, 59.8 nM, 423 nM and 238 nM.
Taken in the same sequence, the figures for `CNC(=O)/C=C/c1cc(O)c(-c2ccc(N(C3CC3)[C@H]3C[C@]4(C)CC[C@](C)(C3)N4)nn2)cc1F` [SMSM 70823, (E)-3-(4-(6-(cyclopropyl((1R,3S,5S)-1,5-dimethyl-8-azabicyclo[3.2.1]octan-3-yl)amino)pyridazin-3-yl)-2-fluoro-5-hydroxyphenyl)-N-methylacrylamide] were 328 nM, 463 nM, 170 nM, 898 nM and 344 nM.
